Source: US9204653B2, “5-fluoro pyrimidine derivatives” (DOW AGROSCIENCES LLC, priority 2008, dated 2015)
Where two headings read alike, the source gives them in different places.

System: Mycosphaerella graminicola; Anamorph: Septoria tritici; Bayer Code SEPTTR
Assay: Leaf blotch of wheat, foliar fungicide treatment, one day protectant (1DP) or three day curative (3DC)
Format: in vivo, Septoria tritici on wheat plants (variety Yuma)
Conditions: Zymoseptoria tritici, percent control rating; for pest or weed control at 100 ppm: read-out: SEPTTR 3DC 100 ppm
[1] = 24 h, one day protectant (1DP), 25 ppm (first 1DP column), read-out: SETTTR 1DP 25 ppm
[2] = 24 h, one day protectant (1DP), 25 ppm as printed (second 1DP column), read-out: SETTTR 1DP 25 ppm
[3] = 72 h, three day curative (3DC), 25 ppm, read-out: SEPTTR 3DC 25 ppm

C=CCOc1ncc(F)c(NNc2cccc(F)n2)n1 [Compound 1086]
pest or weed control at 25 ppm [1]: 0 to 25% | pest or weed control at 25 ppm [2]: 0 to 25% | pest or weed control at 25 ppm [3]: 0 to 25% | pest or weed control at 100 ppm (72 h, three day curative (3DC)): 0 to 25%

C=CCOc1ncc(F)c(NOCc2ccccc2)n1 [Compound 1087]
pest or weed control at 25 ppm [1]: 0 to 25% | pest or weed control at 25 ppm [2]: 0 to 25% | pest or weed control at 25 ppm [3]: 0 to 25% | pest or weed control at 100 ppm (72 h, three day curative (3DC)): 0 to 25%

C=CCOc1ncc(F)c(N(O)Cc2ccccc2)n1 [Compound 1088]
pest or weed control at 25 ppm [1]: 0 to 25% | pest or weed control at 25 ppm [2]: 26 to 50% | pest or weed control at 25 ppm [3]: 0 to 25% | pest or weed control at 100 ppm (72 h, three day curative (3DC)): 0 to 25%

Cc1ccc(COc2ncc(F)c(/N=N/c3cc(C)ccc3C)n2)cc1 [Compound 1089]
pest or weed control at 25 ppm [1]: 0 to 25% | pest or weed control at 25 ppm [2]: 0 to 25% | pest or weed control at 25 ppm [3]: 26 to 50% | pest or weed control at 100 ppm (72 h, three day curative (3DC)): 26 to 50%

Fc1ccc(COc2ncc(F)c(/N=N/c3ccc(Cl)c(Cl)c3)n2)cc1 [Compound 1090]
pest or weed control at 25 ppm [1]: 0 to 25% | pest or weed control at 25 ppm [2]: 0 to 25% | pest or weed control at 25 ppm [3]: 26 to 50% | pest or weed control at 100 ppm (72 h, three day curative (3DC)): 26 to 50%

CC(C)(C)NNc1nc(O)ncc1F [Compound 1092]
pest or weed control at 25 ppm [1]: 0 to 25% | pest or weed control at 25 ppm [2]: 26 to 50% | pest or weed control at 25 ppm [3]: 0 to 25% | pest or weed control at 100 ppm (72 h, three day curative (3DC)): 26 to 50%

NN(Cc1ccccc1)c1nc(O)ncc1F [Compound 1093]
pest or weed control at 25 ppm [1]: 0 to 25% | pest or weed control at 25 ppm [2]: 0 to 25% | pest or weed control at 25 ppm [3]: 0 to 25% | pest or weed control at 100 ppm (72 h, three day curative (3DC)): 0 to 25%

Oc1ncc(F)c(N(O)Cc2ccccc2)n1 [Compound 1094]
pest or weed control at 25 ppm [1]: 0 to 25% | pest or weed control at 25 ppm [2]: 0 to 25% | pest or weed control at 25 ppm [3]: 26 to 50% | pest or weed control at 100 ppm (72 h, three day curative (3DC)): 26 to 50%

Oc1ncc(F)c(NOCc2ccccc2)n1 [Compound 1095]
pest or weed control at 25 ppm [1]: 0 to 25% | pest or weed control at 25 ppm [2]: 0 to 25% | pest or weed control at 25 ppm [3]: 0 to 25% | pest or weed control at 100 ppm (72 h, three day curative (3DC)): 0 to 25%

CON(C)c1nc(O)ncc1F [Compound 1096]
pest or weed control at 25 ppm [1]: 0 to 25% | pest or weed control at 25 ppm [2]: 0 to 25% | pest or weed control at 25 ppm [3]: 0 to 25% | pest or weed control at 100 ppm (72 h, three day curative (3DC)): 76 to 100%

COc1ncc(F)c(/N=N/c2c(Cl)cccc2Cl)n1 [Compound 1097]
pest or weed control at 25 ppm [1]: 0 to 25% | pest or weed control at 25 ppm [2]: 0 to 25% | pest or weed control at 25 ppm [3]: 0 to 25% | pest or weed control at 100 ppm (72 h, three day curative (3DC)): 26 to 50%

Oc1ncc(F)c(NNc2ccccc2Cl)n1 [Compound 1098]
pest or weed control at 25 ppm [1]: 0 to 25% | pest or weed control at 25 ppm [2]: 0 to 25% | pest or weed control at 25 ppm [3]: 0 to 25% | pest or weed control at 100 ppm (72 h, three day curative (3DC)): 0 to 25%

C=CCOc1ncc(F)c(/N=N/c2ccccc2F)n1 [Compound 1099]
pest or weed control at 25 ppm [1]: 0 to 25% | pest or weed control at 25 ppm [2]: 0 to 25% | pest or weed control at 25 ppm [3]: 0 to 25% | pest or weed control at 100 ppm (72 h, three day curative (3DC)): 0 to 25%

C=CCOc1ncc(F)c(/N=N/c2ccc(Br)cc2)n1 [Compound 1100]
pest or weed control at 25 ppm [1]: 0 to 25% | pest or weed control at 25 ppm [2]: 0 to 25% | pest or weed control at 25 ppm [3]: 26 to 50% | pest or weed control at 100 ppm (72 h, three day curative (3DC)): 26 to 50%

CS(=O)(=O)Nc1nc(O)ncc1F [Compound 1101]
pest or weed control at 25 ppm [1]: 0 to 25% | pest or weed control at 25 ppm [2]: 0 to 25% | pest or weed control at 25 ppm [3]: 0 to 25% | pest or weed control at 100 ppm (72 h, three day curative (3DC)): 0 to 25%

COc1ccccc1S(=O)(=O)Nc1nc(O)ncc1F [Compound 1102]
pest or weed control at 25 ppm [1]: 0 to 25% | pest or weed control at 25 ppm [2]: 0 to 25% | pest or weed control at 25 ppm [3]: 26 to 50% | pest or weed control at 100 ppm (72 h, three day curative (3DC)): 26 to 50%

O=S(=O)(Nc1nc(O)ncc1F)c1ccccc1Cl [Compound 1103]
pest or weed control at 25 ppm [1]: 0 to 25% | pest or weed control at 25 ppm [2]: 0 to 25% | pest or weed control at 25 ppm [3]: 0 to 25% | pest or weed control at 100 ppm (72 h, three day curative (3DC)): 0 to 25%

O=S(=O)(Nc1nc(O)ncc1F)C1CC1 [Compound 1104]
pest or weed control at 25 ppm [1]: 0 to 25% | pest or weed control at 25 ppm [2]: 0 to 25% | pest or weed control at 25 ppm [3]: 0 to 25% | pest or weed control at 100 ppm (72 h, three day curative (3DC)): 0 to 25%

CCS(=O)(=O)Nc1nc(O)ncc1F [Compound 1105]
pest or weed control at 25 ppm [1]: 0 to 25% | pest or weed control at 25 ppm [2]: 0 to 25% | pest or weed control at 25 ppm [3]: 0 to 25% | pest or weed control at 100 ppm (72 h, three day curative (3DC)): 0 to 25%

COc1nn(C)c(C(F)(F)F)c1S(=O)(=O)Nc1nc(O)ncc1F [Compound 1106]
pest or weed control at 25 ppm [1]: 0 to 25% | pest or weed control at 25 ppm [2]: 0 to 25% | pest or weed control at 25 ppm [3]: 0 to 25% | pest or weed control at 100 ppm (72 h, three day curative (3DC)): 0 to 25%

O=S(=O)(Nc1nc(OCc2cccs2)ncc1F)c1ccccc1 [Compound 1107]
pest or weed control at 25 ppm [1]: 0 to 25% | pest or weed control at 25 ppm [2]: 0 to 25% | pest or weed control at 25 ppm [3]: 0 to 25% | pest or weed control at 100 ppm (72 h, three day curative (3DC)): 0 to 25%

C/C(=N\Nc1nc(O)ncc1F)c1ccc(Br)cc1 [Compound 1108]
pest or weed control at 25 ppm [1]: 0 to 25% | pest or weed control at 25 ppm [2]: 0 to 25% | pest or weed control at 25 ppm [3]: 0 to 25% | pest or weed control at 100 ppm (72 h, three day curative (3DC)): 0 to 25%

C=CCOc1ncc(F)c(/N=N/c2cc(C)ccc2C)n1 [Compound 1109]
pest or weed control at 25 ppm [1]: 0 to 25% | pest or weed control at 25 ppm [2]: 0 to 25% | pest or weed control at 25 ppm [3]: 0 to 25% | pest or weed control at 100 ppm (72 h, three day curative (3DC)): 0 to 25%

COc1ncc(F)c(/N=N/c2ccccc2Cl)n1 [Compound 1110]
pest or weed control at 25 ppm [1]: 0 to 25% | pest or weed control at 25 ppm [2]: 0 to 25% | pest or weed control at 25 ppm [3]: 0 to 25% | pest or weed control at 100 ppm (72 h, three day curative (3DC)): 0 to 25%

Oc1ncc(F)c(N/N=C/c2ccco2)n1 [Compound 1112]
pest or weed control at 25 ppm [1]: 0 to 25% | pest or weed control at 25 ppm [2]: 0 to 25% | pest or weed control at 25 ppm [3]: 0 to 25% | pest or weed control at 100 ppm (72 h, three day curative (3DC)): 26 to 50%

CC(C)(C)C(=O)OCOc1ncc(F)c(NC=O)n1 [Compound 1113]
pest or weed control at 25 ppm [1]: 76 to 100% | pest or weed control at 25 ppm [2]: 76 to 100% | pest or weed control at 25 ppm [3]: 76 to 100% | pest or weed control at 100 ppm (72 h, three day curative (3DC)): 76 to 100%

C/C(=N\Oc1ncc(F)c(N)n1)C(F)(F)F [Compound 1114]
pest or weed control at 25 ppm [1]: 0 to 25% | pest or weed control at 25 ppm [2]: 0 to 25% | pest or weed control at 25 ppm [3]: 26 to 50% | pest or weed control at 100 ppm (72 h, three day curative (3DC)): 76 to 100%

CCOCNc1nc(O)ncc1F [Compound 1115]
pest or weed control at 25 ppm [1]: 26 to 50% | pest or weed control at 25 ppm [2]: 76 to 100% | pest or weed control at 25 ppm [3]: 26 to 50% | pest or weed control at 100 ppm (72 h, three day curative (3DC)): 76 to 100%

Oc1ncc(F)c(N/N=C/c2ccccc2Cl)n1 [Compound 1118]
pest or weed control at 25 ppm [1]: 0 to 25% | pest or weed control at 25 ppm [2]: 0 to 25% | pest or weed control at 25 ppm [3]: 0 to 25% | pest or weed control at 100 ppm (72 h, three day curative (3DC)): 0 to 25%

CC(C)(C)C(=O)OCOc1ncc(F)c(N)n1 [Compound 1119]
pest or weed control at 25 ppm [1]: 76 to 100% | pest or weed control at 25 ppm [2]: 76 to 100% | pest or weed control at 25 ppm [3]: 76 to 100% | pest or weed control at 100 ppm (72 h, three day curative (3DC)): 76 to 100%

COc1ncc(F)c(NNC(=O)Cc2ccccc2)n1 [Compound 1120]
pest or weed control at 25 ppm [1]: 0 to 25% | pest or weed control at 25 ppm [2]: 0 to 25% | pest or weed control at 25 ppm [3]: 0 to 25% | pest or weed control at 100 ppm (72 h, three day curative (3DC)): 0 to 25%

COc1ncc(F)c(NNC(=O)c2ccc(Cl)cc2)n1 [Compound 1121]
pest or weed control at 25 ppm [1]: 0 to 25% | pest or weed control at 25 ppm [2]: 0 to 25% | pest or weed control at 25 ppm [3]: 0 to 25% | pest or weed control at 100 ppm (72 h, three day curative (3DC)): 0 to 25%

C=CCOc1ncc(F)c(NNC(=O)C=C(C)C)n1 [Compound 1123]
pest or weed control at 25 ppm [1]: 0 to 25% | pest or weed control at 25 ppm [2]: 0 to 25% | pest or weed control at 25 ppm [3]: 0 to 25% | pest or weed control at 100 ppm (72 h, three day curative (3DC)): 0 to 25%

C=CCOc1ncc(F)c(NNC(=O)c2ccncc2)n1 [Compound 1124]
pest or weed control at 25 ppm [1]: 0 to 25% | pest or weed control at 25 ppm [2]: 0 to 25% | pest or weed control at 25 ppm [3]: 0 to 25% | pest or weed control at 100 ppm (72 h, three day curative (3DC)): 0 to 25%

CC(=O)OCOc1ncc(F)c(NC=O)n1 [Compound 1125]
pest or weed control at 25 ppm [1]: 76 to 100% | pest or weed control at 25 ppm [2]: 76 to 100% | pest or weed control at 25 ppm [3]: 76 to 100% | pest or weed control at 100 ppm (72 h, three day curative (3DC)): 76 to 100%

O=CNc1nc(OCOC(=O)C2CCCC2)ncc1F [Compound 1126]
pest or weed control at 25 ppm [1]: 76 to 100% | pest or weed control at 25 ppm [2]: 76 to 100% | pest or weed control at 25 ppm [3]: 76 to 100% | pest or weed control at 100 ppm (72 h, three day curative (3DC)): 76 to 100%

CSCOc1ncc(F)c(/N=C/N(C)C)n1 [Compound 1127]
pest or weed control at 25 ppm [1]: 76 to 100% | pest or weed control at 25 ppm [2]: 76 to 100% | pest or weed control at 25 ppm [3]: 76 to 100% | pest or weed control at 100 ppm (72 h, three day curative (3DC)): 76 to 100%
